Earlier results, collected in the CATMoS acute toxicity set (Mansouri et al. 2021).
Where “and” joins values, the source holds several entries; their conditions need not be identical. Identical values can stand only once.

experiment: rat acute oral toxicity; conditions: in vivo
Source text: […]The data set underlying the modeling effort for this project was initially compiled by NICEATM and U.S. EPA’s CCTE. Briefly, LD50 data were collected from rat acute oral systemic toxicity tests, including limit tests, ranges/confidence intervals, and discrete LD50 values. The full data set included 21,200 LD50 entries for 15,688 substances. […] Data were reviewed to ensure that LD50 values with obvious errors in the extracted data such as unit conversion errors (e.g., comma and decimal separator misplacements) were either fixed or removed. After this review, 16,209 LD50 values remained. Many of the chemicals represented had multiple LD50 entries, requiring that a single representative value per Chemical Abstracts Service Registry Number (CASRN) identifier be defined to facilitate modeling efforts. Based on ATWG feedback and to define the representative LD50 as a protective value while accounting for the distribution across multiple LD50s, the median of the lowest quartile was computed using only discrete LD50 values (omitting limit test data and range and confidence interval data). A detailed summary of the data compilation is available online on the NICEATM webpage dedicated to the collaborative modeling project (NTP 2020).
[…][…] For categorical designations, limit test and range/confidence interval LD50 data were integrated wherever possible. As such, the number of chemicals with end point values/calls varies across the modeling end points (Table 3) based on whether chemicals had representative LD50 values and/or other data. If a chemical had both, the representative value was used to determine categorical calls rather than limit test data. Some data were useable only for certain end points and categories depending on the thresholds. For example, ranges that spanned multiple hazard categories were considered only for the binary (very toxic/nontoxic) end points and omitted from rendering a determination for hazard category assignment.
[…]The final data set comprising 11,992 chemicals was split into training and evaluation sets […], respectively. This process was performed semirandomly by ordering chemicals based on the five end points (categorical and continuous LD50 values) and partitioning every fourth record into the evaluation set accordingly. This approach was taken to ensure an equivalent distribution of the LD50 values and the different hazard categories between the training and the evaluation sets without supervised sampling of the chemicals based on structures (Figure 1A). The sources of the chemical structures were also kept equivalent between the two sets, with chemical structures obtained from DSSTox, being the highest quality, representing over 75% of each set (Figure 1B).

Row | SMILES | LD50
1 | CC1(C)C2CCC1(C)C(Oc1ccc(N)cc1)C2 (stereo not drawn) | 660 mg/kg
2 | CC(C)(C)c1cc(C(=O)c2cccs2)cc(C(C)(C)C)c1O | 1620 mg/kg
3 | [2H]C([2H])([2H])N(COC(C)=O)N=O | 120 mg/kg
4 | CCC(C)OC(CBr)c1ccccc1 (stereo not drawn) | 250 mg/kg
5 | CS(=O)(=O)c1nnc(C(F)(F)F)s1 | 312 mg/kg
6 | N#CCCN1C(=O)C(O)N=C(c2ccccc2F)c2cc(Cl)ccc21 (stereo not drawn) | 3500 mg/kg
7 | CNC[C@H](O)c1ccc(O)c(O)c1 | 30 mg/kg and 24 mg/kg
8 | O=c1c2ccccc2n(-c2cccc(C(F)(F)F)c2)c(=O)n1CCO | 810 mg/kg
9 | Cc1cccc(C)c1NC(=O)c1cc(S(N)(=O)=O)c(Cl)cc1O | 1640 mg/kg
10 | CNCC1CCCCC1 | 1410 mg/kg
11 | NCCc1c[nH]c2ccccc12 | 300 mg/kg
12 | O=C1c2ccccc2C(=O)c2c(Nc3ccc(Oc4ccc(S(=O)(=O)O)cc4)cc3)ccc(Nc3ccc(Oc4ccc(S(=O)(=O)O)cc4)cc3)c21 | 8550 mg/kg
13 | COC(=O)CCC(Br)C(C)=O (stereo not drawn) | 600 mg/kg
14 | CCCCC(CC)CNCC(C)(N)CNCC(CC)CCCC (stereo not drawn) | 800 mg/kg
15 | CCOC(=O)C1=C(O)c2ccccc2S(=O)(=O)N1C | 4800 mg/kg
16 | O=C1c2cccc(Br)c2C(=O)C1c1ccccc1 (stereo not drawn) | 745 mg/kg
17 | CN(N=O)C1CCS(=O)(=O)C1 (stereo not drawn) | 750 mg/kg
18 | Oc1c(Cl)c(Cl)cc(Cl)c1Cc1c(Cl)cc(Cl)c(Cl)c1O | 100 mg/kg
19 | CCC(N)Cc1c[nH]c2ccccc12 (stereo not drawn) | 49 mg/kg
20 | O=CNC(Nc1ccc(Cl)c(Cl)c1)C(Cl)(Cl)Cl (stereo not drawn) | 2500 mg/kg
21 | CN(CO)C(=O)Oc1cccc2ccccc12 | 5360 mg/kg

Row | SMILES | LD50
22 | CC(Cl)(C=O)CCl (stereo not drawn) | 1620 mg/kg
23 | CCCCC[C@H](O)/C=C/[C@H]1[C@H](O)CC(=O)[C@@H]1CCCCCCC(=O)O | 228 mg/kg
24 | OCCS | 244 mg/kg
25 | N#Cc1cc2[nH]c(C(F)(F)F)nc2c(Cl)c1Cl | 3960 mg/kg
26 | CCC(C)CO (stereo not drawn) | 4170 mg/kg
27 | N#C[Se]Cc1ccccc1 | 98.5 mg/kg
28 | CS(=O)(=O)c1ccc2nc(C(F)(F)F)[nH]c2c1 | 69 mg/kg
29 | CC(=O)Oc1ccc(-c2ccc(F)cc2)cc1C(=O)O | 185 mg/kg
30 | CCCOC(=O)CCC(=O)OCCC | 6490 mg/kg
31 | C=C(F)C(=O)OCC(F)(F)C(F)F | 60 mg/kg
32 | CCC(SC(C)=NOC(=O)NC)C(N)=O (stereo not drawn) | 14.1 mg/kg
33 | Nc1ccc(O)c(C(=O)O)c1 | 2800 mg/kg
34 | C=CC(=O)NC | 476 mg/kg
35 | OCC1CCCO1 (stereo not drawn) | 1600 mg/kg
36 | CCC(C)c1ccc(Cl)c(OC(=O)NC)c1 (stereo not drawn) | 50 mg/kg
37 | CC(C)c1ccnc2ccccc12 | 940 mg/kg
38 | Oc1c(Cl)c(Cl)cc2[nH]c(C(F)(F)F)nc12 | 52 mg/kg
39 | CN(C)CCN1C(=O)c2ccccc2Nc2cc(Cl)ccc21 | 242 mg/kg
40 | CN(CCO)c1nc(Nc2ccccc2)nc(Nc2ccc(/C=C/c3ccc(Nc4nc(Nc5ccccc5)nc(N(C)CCO)n4)cc3S(=O)(=O)O)c(S(=O)(=O)O)c2)n1 | 6890 mg/kg
41 | CCOP(=O)(OCC)SCSP(=O)(OCC)OCC | 12.8 mg/kg
42 | O=C(O)C(=O)C(O)=C(O)O | 6000 mg/kg

Row | SMILES | LD50
43 | CC(C)CC(C)CC(CC(C)C)OCCO (stereo not drawn) | 5650 mg/kg
44 | CCC(=O)c1ccc(N)cc1 | 177 mg/kg
45 | CCOCC(Cl)C(OCC)OCC (stereo not drawn) | 1320 mg/kg
46 | Cc1sc2ccccc2c1CC1=NCCN1 | 74 mg/kg
47 | COC(=O)C(c1ccccc1Cl)N1CCc2sccc2C1 (stereo not drawn) | 1910 mg/kg
48 | CCCCC(CC)CN (stereo not drawn) | 450 mg/kg
49 | Clc1cncc(N2CCNCC2)n1 | 79.6 mg/kg
50 | O=C(CS(=O)Cc1ccco1)NC/C=C\COc1cc(CN2CCCCC2)ccn1 (stereo not drawn) | 1250 mg/kg
51 | c1ccc2c(c1)Sc1ccccc1N2CC1CN2CCC1CC2 (stereo not drawn) | 245 mg/kg
52 | C=C(F)CO | 130 mg/kg
53 | O=C1C(=NNc2ccccc2)C(S(=O)(=O)O)=Cc2cc(S(=O)(=O)O)cc(Nc3nc(Cl)nc(Cl)n3)c21 | 7460 mg/kg
54 | CCOC(C1=NCC(O)CN1)c1ccccc1 (stereo not drawn) | 1750 mg/kg
55 | COc1ccc2c(c1)c(CC(=O)O)c(C)n2C(=O)c1ccc(Cl)cc1 | 21 mg/kg
56 | CCCCC(CC)COC(C[n+]1ccccc1)c1ccc(Cl)c(Cl)c1 (stereo not drawn) | 250 mg/kg
57 | OCC(CO)N[C@H]1C[C@](O)(CO)[C@@H](O)[C@H](O)[C@H]1O | 20000 mg/kg
58 | CNC(=O)Oc1ccc(CC#N)cc1 | 511 mg/kg
59 | CCOC(=O)CCC1(CCC(=O)OCC)c2ccccc2-c2ccccc21 | 6170 mg/kg
60 | CCN(CCNS(C)(=O)=O)c1ccc(N)c(C)c1 | 400 mg/kg
61 | C=CCSCC=C | 2980 mg/kg
62 | Nc1ccc2[nH]c3ccc(N)cc3c2c1 | 1040 mg/kg
63 | C=C(Cl)C(=O)OC | 68 mg/kg
